Reference: ChEMBL document CHEMBL4680060, “Polybasic peptide-levofloxacin conjugates potentiate fluoroquinolones and other classes of antibiotics against multidrug-resistant Gram-negative bacteria” (Medchemcomm, 2019)
Converted amounts (≈) assume the structure as drawn.

Tests used:
Pseudomonas aeruginosa [1] = assay: Potentiation of moxifloxacin-induced antibacterial activity against wild type Pseudomonas aeruginosa PAO1 assessed as moxifloxacin MIC measured after 18 hrs by CLSI protocol based microbroth dilution method (reference value: 1 ug/ml); assay type: functional
[2] = test system: Staphylococcus epidermidis; assay: Antibacterial activity against methicillin-susceptible Staphylococcus epidermidis clinical isolate CANWARD-2008 81388 assessed as inhibition of visible growth incubated for 18 hrs by CLSI protocol based microbroth dilution method; assay type: functional
Streptococcus pneumoniae = assay: Antibacterial activity against Streptococcus pneumoniae ATCC 49619 assessed as inhibition of visible growth incubated for 18 hrs by CLSI protocol based microbroth dilution method; assay type: functional
Pseudomonas aeruginosa [3] = assay: Antibacterial activity against Pseudomonas aeruginosa ATCC 27853 assessed as inhibition of visible growth incubated for 18 hrs by CLSI protocol based microbroth dilution method; assay type: functional
Klebsiella pneumoniae = assay: Antibacterial activity against Klebsiella pneumoniae 116381 assessed as inhibition of visible growth incubated for 18 hrs by CLSI protocol based microbroth dilution method; assay type: functional
Enterococcus faecalis = assay: Antibacterial activity against Enterococcus faecalis ATCC 29212 assessed as inhibition of visible growth incubated for 18 hrs by CLSI protocol based microbroth dilution method; assay type: functional
[4] = test system: Stenotrophomonas maltophilia; assay: Antibacterial activity against Stenotrophomonas maltophilia clinical isolate CAN-ICU 62584 assessed as inhibition of visible growth incubated for 18 hrs by CLSI protocol based microbroth dilution method; assay type: functional
Staphylococcus aureus [5] = assay: Antibacterial activity against methicillin-resistant Staphylococcus aureus ATCC 33592 assessed as inhibition of visible growth incubated for 18 hrs by CLSI protocol based microbroth dilution method; assay type: functional
Pseudomonas aeruginosa [6] = assay: Potentiation of ciprofloxacin-induced antibacterial activity against wild type Pseudomonas aeruginosa PAO1 assessed as ciprofloxacin MIC measured after 18 hrs by CLSI protocol based microbroth dilution method (reference value: 0.125 ug/ml); assay type: functional
Staphylococcus aureus [7] = assay: Antibacterial activity against Staphylococcus aureus ATCC 29213 assessed as inhibition of visible growth incubated for 18 hrs by CLSI protocol based microbroth dilution method; assay type: functional
Enterobacter cloacae = assay: Antibacterial activity against Enterobacter cloacae 117029 assessed as inhibition of visible growth incubated for 18 hrs by CLSI protocol based microbroth dilution method; assay type: functional
Escherichia coli = assay: Antibacterial activity against Escherichia coli ATCC 25922 assessed as inhibition of visible growth incubated for 18 hrs by CLSI protocol based microbroth dilution method; assay type: functional
Staphylococcus aureus [8] = assay: Antibacterial activity against methicillin-resistant Staphylococcus aureus clinical isolate CAN-ICU 61589 assessed as inhibition of visible growth incubated for 18 hrs by CLSI protocol based microbroth dilution method; assay type: functional
Acinetobacter baumannii = assay: Antibacterial activity against Acinetobacter baumannii clinical isolate CAN-ICU 63169 assessed as inhibition of visible growth incubated for 18 hrs by CLSI protocol based microbroth dilution method; assay type: functional
Pseudomonas aeruginosa [9] = assay: Potentiation of levofloxacin-induced antibacterial activity against wild type Pseudomonas aeruginosa PAO1 assessed as levofloxacin MIC measured after 18 hrs by CLSI protocol based microbroth dilution method (reference value: 0.5 ug/ml); assay type: functional
Pseudomonas aeruginosa [10] = assay: microbe, parasite or virus in culture; conditions: PAO1, 18 h
Pseudomonas aeruginosa [11] = assay: microbe, parasite or virus in culture; conditions: PAO1, 18 h; remark: listed apart in the source
Pseudomonas aeruginosa [12] = assay: microbe, parasite or virus in culture; conditions: PAO1, 18 h; remark: listed apart in the source

Row | Compound | MIC (Pseudomonas aeruginosa [1]) [µg/mL] | MIC [2] [µg/mL] | MIC (Streptococcus pneumoniae) [µg/mL] | MIC (Pseudomonas aeruginosa [3]) [µg/mL] | MIC (Klebsiella pneumoniae) [µg/mL] | MIC (Enterococcus faecalis) [µg/mL] | MIC [4] [µg/mL] | MIC (Staphylococcus aureus [5]) [µg/mL] | MIC (Pseudomonas aeruginosa [6]) [µg/mL] | MIC (Staphylococcus aureus [7]) [µg/mL] | MIC (Enterobacter cloacae) [µg/mL] | MIC (Escherichia coli) [µg/mL] | MIC (Staphylococcus aureus [8]) [µg/mL] | MIC (Acinetobacter baumannii) [µg/mL] | MIC (Pseudomonas aeruginosa [9]) [µg/mL] | MIC (Pseudomonas aeruginosa [10]) [µg/mL] | MIC (Pseudomonas aeruginosa [11]) [µg/mL] | MIC (Pseudomonas aeruginosa [12]) [µg/mL]
1 | C[C@H]1COc2c(N3CCN(C)CC3)c(F)cc3c(=O)c(C(=O)N[C@@H](CCN)C(=O)N[C@@H](CCN)C(N)=O)cn1c23 | 1 | > 128 | > 128 | > 128 | > 128 | > 128 | > 128 | > 128 | 0.125 | > 128 | > 128 | 128 (≈ 228 µM) | > 128 | > 128 | 0.25 | – | – | –
2 | C[C@H]1COc2c(N3CCN(C)CC3)c(F)cc3c(=O)c(C(=O)O)cn1c23.C[C@H]1COc2c(N3CCN(C)CC3)c(F)cc3c(=O)c(C(=O)O)cn1c23.O [LEVOFLOXACIN] | – | ≤ 0.25 | – | – | 128 | 2 | 4 | ≤ 0.25 | – | ≤ 0.25 | 0.125 | ≤ 0.25 | > 128 | 1 | – | 16 | 16 | –
3 | C[C@H]1COc2c(N3CCN(C)CC3)c(F)cc3c(=O)c(C(=O)N[C@H](CN)CCC(=O)O)cn1c23 | 1 | > 128 | > 128 | > 128 | > 128 | > 128 | > 128 | > 128 | 0.125 | > 128 | > 128 | > 128 | > 128 | > 128 | 0.5 | – | – | –
4 | C[C@H]1COc2c(N3CCN(C)CC3)c(F)cc3c(=O)c(C(=O)N[C@@H](CCN)C(N)=O)cn1c23 | 1 | > 128 | > 128 | > 128 | > 128 | > 128 | > 128 | > 128 | 0.125 | > 128 | > 128 | 128 (≈ 278 µM) | > 128 | > 128 | 0.5 | – | – | –
5 | C[C@H]1COc2c(N3CCN(C)CC3)c(F)cc3c(=O)c(C(=O)NCCCCCCCCCCCC(=O)N[C@@H](CCN)C(N)=O)cn1c23 | 1 | 64 (≈ 97.3 µM) | > 128 | > 128 | > 128 | > 128 | > 128 | > 128 | 0.063 | 128 (≈ 195 µM) | 128 (≈ 195 µM) | > 128 | 128 (≈ 195 µM) | > 128 | 0.25 | – | – | –
6 | O=C(O)c1cn(C2CC2)c2cc(N3CCNCC3)c(F)cc2c1=O [CIPROFLOXACIN] | – | – | – | – | – | – | – | – | – | – | – | – | – | – | – | 16 (≈ 48.3 µM) | – | 32 (≈ 96.6 µM)
7 | C[C@H]1COc2c(N3CCN(C)CC3)c(F)cc3c(=O)c(C(=O)N[C@@H](CCC(=O)O)C(=O)N[C@H](CN)CCC(=O)O)cn1c23 | 1 | > 128 | > 128 | > 128 | > 128 | > 128 | 16 (≈ 26.5 µM) | > 128 | 0.125 | > 128 | > 128 | 128 (≈ 212 µM) | > 128 | > 128 | 0.5 | – | – | –
8 | COc1c(N2C[C@@H]3CCCN[C@@H]3C2)c(F)cc2c(=O)c(C(=O)O)cn(C3CC3)c12 [MOXIFLOXACIN] | – | – | – | – | – | – | – | – | – | – | – | – | – | – | – | 8 (≈ 19.9 µM) | 16 (≈ 39.9 µM) | 8 (≈ 19.9 µM)
